Results as given in PubChem BioAssay AID330 (DTP/NCI, 2004).
Several values for one entry are separate records, joined by “and”; a condition that tells them apart may be missing. Identical values can stand only once. Inconclusive results and toxic doses are left out. How the source made its calls: active means survival T/C of 150% or more; inactive means T/C below 125% in these data.

Tested on: P388 leukemia ip, CD2F1 mice, survival T/C
Test: NCI In Vivo Anticancer Drug Screen. Data for tumor model P388 Leukemia (intraperitoneal) in CD2F1 (CDF1) mice
Details: endpoint: median survival time, higher = longer survival
How it was run: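 Mice carrying the transplanted tumor received test compound or vehicle. Survival was recorded in each group, and the value is the treated-group measurement divided by that of the vehicle-treated control group.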

[1] = dose: 12.5 mg/kg/injection, schedule: Q01DX009 (ip), vehicle: saline with Tween-80
[2] = dose: 25.0 mg/kg/injection, schedule: Q01DX009 (ip), vehicle: saline with Tween-80
[3] = dose: 50.0 mg/kg/injection, schedule: Q01DX009 (ip), vehicle: saline with Tween-80
[4] = dose: 200.0 mg/kg/injection, schedule: Q04DX003 (ip), vehicle: saline sonified
[5] = dose: 12.5 mg/kg/injection, schedule: Q01DX009 (ip), vehicle: Klucel (hydroxypropylcellulose) (HPC)
[6] = dose: 25.0 mg/kg/injection, schedule: Q01DX009 (ip), vehicle: Klucel (hydroxypropylcellulose) (HPC)
[7] = dose: 50.0 mg/kg/injection, schedule: Q01DX009 (ip), vehicle: Klucel (hydroxypropylcellulose) (HPC)
[8] = dose: 50.0 mg/kg/injection, schedule: Q01DX005 (ip), vehicle: Klucel (hydroxypropylcellulose) (HPC)
[9] = dose: 100.0 mg/kg/injection, schedule: Q01DX005 (ip), vehicle: Klucel (hydroxypropylcellulose) (HPC)
[10] = dose: 200.0 mg/kg/injection, schedule: Q01DX005 (ip), vehicle: Klucel (hydroxypropylcellulose) (HPC)
[11] = dose: 60.0 mg/kg/injection, schedule: Q01DX005 (ip), vehicle: Klucel (hydroxypropylcellulose) (HPC)
[12] = dose: 100.0 mg/kg/injection, schedule: Q01DX009 (ip), vehicle: saline with Tween-80
[13] = dose: 0.25 % in 0.5 ml injection vol, schedule: Q01DX009 (ip), vehicle: water
[14] = dose: 0.5 % in 0.5 ml injection vol, schedule: Q01DX009 (ip), vehicle: water
[15] = dose: 1.0 % in 0.5 ml injection vol, schedule: Q01DX009 (ip), vehicle: water
[16] = dose: 60.0 mg/kg/injection, schedule: Q01DX005 (ip), vehicle: saline with Tween-80
[17] = dose: 120.0 mg/kg/injection, schedule: Q01DX005 (ip), vehicle: saline with Tween-80
[18] = dose: 240.0 mg/kg/injection, schedule: Q01DX005 (ip), vehicle: saline with Tween-80
[19] = dose: 6.25 mg/kg/injection, schedule: Q01DX009 (ip), vehicle: saline with Tween-80

Measured: T/C

CC1(c2ccc(Cl)cc2)NC(=O)N(CN2CCCCC2)C1=O (configuration not stated)
inactive: [1] 100 % of control | [2] 100 % of control | [3] 100 % of control | dose: 50.0 mg/kg/injection, schedule: Q04DX003 (ip), vehicle: saline sonified 100 % of control | dose: 100.0 mg/kg/injection, schedule: Q04DX003 (ip), vehicle: saline sonified 107 % of control | [4] 100 % of control

CCCCCCN(CCCCCC)c1nsc(Cl)n1
inactive: dose: 40.0 mg/kg/injection, schedule: Q01DX009 (ip), vehicle: saline with Tween-80 105 % of control | dose: 80.0 mg/kg/injection, schedule: Q01DX009 (ip), vehicle: saline with Tween-80 108 % of control | dose: 160.0 mg/kg/injection, schedule: Q01DX009 (ip), vehicle: saline with Tween-80 111 % of control

COc1cc(Br)c(C2=C3c4cc(OC)c(OC)cc4CCN3C(=O)C2=O)cc1OC
inactive: [8] 99 % of control | [9] 93 % of control | [10] 90 % of control

CCC(=O)OCc1c(-c2ccccc2)nc2sccn12
inactive: dose: 200.0 mg/kg/injection, schedule: Q01DX001 (ip), vehicle: Klucel (hydroxypropylcellulose) (HPC) 103 % of control

O=c1nc(N2CCCC2)oc2cc3ccccc3cc12
inactive: [11] 95 % of control | dose: 120.0 mg/kg/injection, schedule: Q01DX005 (ip), vehicle: Klucel (hydroxypropylcellulose) (HPC) 98 % of control | dose: 240.0 mg/kg/injection, schedule: Q01DX005 (ip), vehicle: Klucel (hydroxypropylcellulose) (HPC) 95 % of control

O=C(O)O
inactive: dose: 25.0 mg/kg/injection, schedule: Q01DX009 (ip), vehicle: saline 102 % of control | dose: 50.0 mg/kg/injection, schedule: Q01DX009 (ip), vehicle: saline 94 % of control and 93 % of control | [12] 100 % of control | dose: 100.0 mg/kg/injection, schedule: Q01DX009 (ip), vehicle: saline 99 % of control and 95 % of control | dose: 200.0 mg/kg/injection, schedule: Q01DX009 (ip), vehicle: saline with Tween-80 95 % of control | dose: 200.0 mg/kg/injection, schedule: Q01DX009 (ip), vehicle: saline 98 % of control and 102 % of control | [4] 100 % of control | [13] 98 % of control | dose: 400.0 mg/kg/injection, schedule: Q04DX003 (ip), vehicle: saline sonified 100 % of control | [14] 100 % of control | [15] 102 % of control | dose: 4.0 % in 0.5 ml injection vol, schedule: Q01DX009 (ip), vehicle: water 100 % of control and 102 % of control | dose: 8.0 % in 0.5 ml injection vol, schedule: Q01DX009 (ip), vehicle: water 99 % of control and 95 % of control

COc1ccc2ccc3ccc(OC)nc3c2n1
inactive: [16] 92 % of control | [17] 95 % of control | [18] 108 % of control

ClC(Cl)(Cl)c1nc2nccnc2[nH]1
inactive: [19] 88 % of control | [1] 100 % of control | [2] 107 % of control and 90 % of control

COC1/C=C/OC2(C)Oc3c(C)c(O)c4c(O)c(c(/C=N/N5CC(C)(C)N(Cc6ccccc6)CC5(C)C)c(O)c4c3C2=O)NC(=O)C(C)=C/C=C/C(C)C(O)C(C)C(O)C(C)C(OC(C)=O)C1C (configuration not stated)
inactive: [3] 107 % of control | [12] 118 % of control

CCCCCN(CCCCC)c1nsc(Cl)n1
inactive: [2] 108 % of control | [3] 103 % of control | [12] 100 % of control

CCN(CC)c1cccc(OC(=O)Nc2cccc(Cl)c2Cl)c1
inactive: [16] 100 % of control | [17] 100 % of control | [18] 92 % of control

O=Cc1ccccc1
inactive: [5] 98 % of control | [6] 99 % of control and 100 % of control and 115 % of control | [7] 100 % of control and 103 % of control and 107 % of control | dose: 100.0 mg/kg/injection, schedule: Q01DX009 (ip), vehicle: Klucel (hydroxypropylcellulose) (HPC) 100 % of control and 97 % of control and 98 % of control | dose: 200.0 mg/kg/injection, schedule: Q01DX009 (ip), vehicle: Klucel (hydroxypropylcellulose) (HPC) 100 % of control and 109 % of control and 95 % of control | [13] 99 % of control | dose: 400.0 mg/kg/injection, schedule: Q01DX009 (ip), vehicle: Klucel (hydroxypropylcellulose) (HPC) 93 % of control and 98 % of control | [14] 100 % of control | [15] 100 % of control

c1cc2nc(-c3ccc4nc(C5=NCCN5)[nH]c4c3)[nH]c2cc1C1=NCCN1
inactive: dose: 12.5 mg/kg/injection, schedule: Q01DX005 (ip), vehicle: saline 90 % of control | dose: 25.0 mg/kg/injection, schedule: Q01DX005 (ip), vehicle: saline 87 % of control and 90 % of control | dose: 50.0 mg/kg/injection, schedule: Q01DX005 (ip), vehicle: saline 99 % of control and 91 % of control and 97 % of control

ClC(Cl)(Cl)CN1CCCCC1Cc1ccccc1 (configuration not stated)
inactive: dose: 30.0 mg/kg/injection, schedule: Q01DX005 (ip), vehicle: Klucel (hydroxypropylcellulose) (HPC) 101 % of control | [11] 100 % of control

CC1=NN(C(=O)c2ccccc2)C(C)(C)C1
inactive: [8] 113 % of control | [9] 111 % of control | [10] 97 % of control

O=C1C=CCC12CC=CC2=O
inactive: dose: 6.25 mg/kg/injection, schedule: Q01DX001 (ip), vehicle: Klucel (hydroxypropylcellulose) (HPC) 100 % of control and 105 % of control | dose: 12.5 mg/kg/injection, schedule: Q01DX001 (ip), vehicle: Klucel (hydroxypropylcellulose) (HPC) 117 % of control and 94 % of control | dose: 25.0 mg/kg/injection, schedule: Q01DX001 (ip), vehicle: Klucel (hydroxypropylcellulose) (HPC) 100 % of control and 123 % of control

CCOC(=O)CN(CCN(CC)CC)c1ccc([N+](=O)[O-])cc1[N+](=O)[O-]
inactive: dose: 100.0 mg/kg/injection, schedule: Q01DX001 (ip), vehicle: other 95 % of control | dose: 200.0 mg/kg/injection, schedule: Q01DX001 (ip), vehicle: other 100 % of control

CCOC(=O)/C=C1\CONC(c2ccc(OC)cc2)=N1
inactive: [16] 106 % of control | [17] 97 % of control | [18] 105 % of control

ClCC[N+]12CC[N+](CCCl)(CC1)C2.[Cl][Pt]([Cl])([Cl])[Cl]
inactive: dose: 6.25 mg/kg/injection, schedule: Q01DX009 (ip), vehicle: distilled water + Tween-80 100 % of control
active: dose: 25.0 mg/kg/injection, schedule: Q01DX009 (ip), vehicle: distilled water + Tween-80 169 % of control

N#Cc1nnn(Cc2ccccc2)c1N
inactive: [19] 110 % of control | [1] 110 % of control | [2] 108 % of control | [3] 98 % of control and 86 % of control

CC(O)c1nc2c3ccccc3ccc2n1C (configuration not stated)
inactive: dose: 50.0 mg/kg/injection, schedule: Q01DX005 (ip), vehicle: saline with Tween-80 96 % of control | dose: 100.0 mg/kg/injection, schedule: Q01DX005 (ip), vehicle: saline with Tween-80 93 % of control | dose: 200.0 mg/kg/injection, schedule: Q01DX005 (ip), vehicle: saline with Tween-80 92 % of control

S=P12OCCC(CO1)O2 (configuration not stated)
inactive: dose: 100.0 mg/kg/injection, schedule: Q04DX003 (ip), vehicle: Klucel (hydroxypropylcellulose) (HPC) 100 % of control | dose: 200.0 mg/kg/injection, schedule: Q04DX003 (ip), vehicle: Klucel (hydroxypropylcellulose) (HPC) 97 % of control | dose: 400.0 mg/kg/injection, schedule: Q04DX003 (ip), vehicle: Klucel (hydroxypropylcellulose) (HPC) 97 % of control

N=C(N)c1ccc(N=Nc2ccc(O)c3c2ccc[n+]3[O-])cc1
inactive: dose: 3.13 mg/kg/injection, schedule: Q01DX005 (ip), vehicle: Klucel (hydroxypropylcellulose) (HPC) 106 % of control | dose: 6.25 mg/kg/injection, schedule: Q01DX005 (ip), vehicle: Klucel (hydroxypropylcellulose) (HPC) 97 % of control | dose: 12.5 mg/kg/injection, schedule: Q01DX005 (ip), vehicle: Klucel (hydroxypropylcellulose) (HPC) 106 % of control | dose: 25.0 mg/kg/injection, schedule: Q01DX005 (ip), vehicle: Klucel (hydroxypropylcellulose) (HPC) 109 % of control and 110 % of control and 117 % of control | [8] 117 % of control | [9] 103 % of control and 123 % of control | [10] 110 % of control
